{Lys} = L-lysine residue attached to the PNA terminus
Assays:
[1] = system: Cas9 RNP, FANCF sgRNA, FANCF ON site; assay: FANCF on-target editing in K562 cells (amplicon sequencing); format: cell-based, human
Description: For Cas9 RNP assembly, 50 pmol of sgRNA (IDT, Alt-R CRISPR-Cas9 sgRNA) and 45 pmol of SpCas9 (CPO2, PNA BIO) were incubated at room temperature for 10 minutes in a 5 μL reaction in 1×3.1 Buffer (B7203S, NEB). For nucleofections, 1×10^6 cells, 5 μL Cas9 RNP, and 1 μL of Alt-R Cas9 electroporation enhancer (IDT) were resuspended in 100 μL of Lonza cell line solution (V4XC-2024/V4XC-1024, Lonza) and nucleofected using a Lonza 4D-Nucleofector X unit. Cas9 RNP treated cells were seeded in 2 mL of complete media and incubated for 96 hours prior to harvesting for analysis. […]
(§1) Genomic DNA was purified from 0.5×10^6 cells using Promega ReliaPrep gDNA Tissue Miniprep System (A2052) and eluted in 50 μL of water. […] FASTQ reads were subjected to quality analysis (Basespace FASTQC) and analyzed for indel frequency using Cas-Analyzer assessment tool (parameters: Comparison range (R)—both ends of full amplicon sequence, Minimum frequency (n)=1). gRNAs used in this study are listed in Table 8, amplicon genomic coordinates listed in Table 9.
(§2) 10^6 K562 cells were nucleofected (Lonza 4D Nucleofector) with specified dose (0-150 pmol) of FANCF PAM-distal 10mer PNA. […] Sequencing data was analyzed for indel frequency using a validated Cas-Analyzer tool (Park, et al., Bioinformatics 33, 286-288 (2017)).

[2] = system: Cas9 RNP (FANCF, EMX1, ZSCAN2, CCR5, VEGFA gRNAs); assay: On-target specificity of Cas9 RNP (ratio of on-target to off-target editing rates); format: cell-based, human
Description: (§3) For PNA pre-treatments, 1×10^6 cells and 1 μL of PNA diluted to desired concentration in water were similarly nucleofected using Lonza cell line kits and 4D-Nucleofector. PNA nucleofected cells were resuspended in 1.25 mL of complete media in 1.5 mL tubes and incubated at 37° C. for 2 hours before Cas9 RNP nucleofection as described above. After Cas9 RNP nucleofection cells were seeded in 2 mL of complete media and incubated for 96 hours prior to harvesting and analysis.
(§4) Genomic DNA was purified from 0.5×10^6 cells using Promega ReliaPrep gDNA Tissue Miniprep System (A2052) and eluted in 50 μL of water. Library prep used 100 ng of gDNA input with Ampliseq for Illumina Library Plus kit (20019101, Illumina) and used a custom primer pool designed to amplify a designed panel of genomic targets of interest (Table 9). Libraries were indexed, pooled, and loaded onto a Mid-output (300-cycles, Illumina, FC-420-1004) cartridge for paired-end sequencing on an Illumina Miniseq instrument. FASTQ reads were subjected to quality analysis (Basespace FASTQC) and analyzed for indel frequency using Cas-Analyzer assessment tool (parameters: Comparison range (R)—both ends of full amplicon sequence, Minimum frequency (n)=1). gRNAs used in this study are listed in Table 8, amplicon genomic coordinates listed in Table 9.
In the case of EMX1 ON and OFF target amplicons, both regions were amplified from 200 ng of purified gDNA by Phusion High-Fidelity Polymerase (NEB, M0530S) and pooled and purified using QIAGEN PCR purification kit (28104, Qiagen). Library prep used 200 ng of purified amplicon input with Illumina DNA Prep kit (20025519, Illumina). EMX1 libraries were similarly indexed, pooled, sequenced, and analysed as above.
For pre-annealed PAM-distal PNA experiments, 50 pmol of sgRNA and 50 pmol of PAM-distal 10mer PNAs were incubated in a thermocycler at 37° C. for 30 minutes in a 5 μL reaction in 1×3.1 Buffer (B7203S, NEB) to allow annealing. PNA annealing to sgRNAs was confirmed by gel shift on 5% polyacrylamide gel. 45 pmol of SpCas9 (CP02, PNA BIO) was then added at room temperature and incubated for 10 minutes to allow RNP formation. Resulting reaction was delivered to 1×10^6 K562 cells by a single nucleofection and treated as described above.

[3] = system: Cas9 RNP, FANCF sgRNA, FANCF OT1 site; assay: FANCF off-target editing in K562 cells (amplicon sequencing); format: cell-based, human
Description: (§5) For Cas9 RNP assembly, 50 pmol of sgRNA (IDT, Alt-R CRISPR-Cas9 sgRNA) and 45 pmol of SpCas9 (CPO2, PNA BIO) were incubated at room temperature for 10 minutes in a 5 μL reaction in 1×3.1 Buffer (B7203S, NEB). For nucleofections, 1×10^6 cells, 5 μL Cas9 RNP, and 1 μL of Alt-R Cas9 electroporation enhancer (IDT) were resuspended in 100 μL of Lonza cell line solution (V4XC-2024/V4XC-1024, Lonza) and nucleofected using a Lonza 4D-Nucleofector X unit. Cas9 RNP treated cells were seeded in 2 mL of complete media and incubated for 96 hours prior to harvesting for analysis.
as §3
as §4, with “Libraries were indexed, pooled, and loaded onto a Mid-output (300-cycles, Illumina, FC-420-1004) cartridge for paired-end sequencing on an Illumina Miniseq instrument.” left out
as §2

[4] = system: Cas9 RNP, CCR5 R30 sgRNA, CCR5 ON site; assay: CCR5 on-target editing in K562 cells (amplicon sequencing); format: cell-based, human; details: PNA pre-treatment 2 hours before Cas9 RNP (FIG. 10A: 50 pmol PNA)
Description: as §5
as §3, with “After Cas9 RNP nucleofection cells were seeded in 2 mL of complete media and incubated for 96 hours prior to harvesting and analysis.” left out
as §1

[5] = system: Cas9 RNP, CCR5 R30 sgRNA, CCR2 off-target site; assay: CCR5 gRNA off-target editing in the CCR2 gene in K562 cells (amplicon sequencing); format: cell-based, human; details: PNA pre-treatment 2 hours before Cas9 RNP (FIG. 10A: 50 pmol PNA)
Description: as §5
as §3, with “After Cas9 RNP nucleofection cells were seeded in 2 mL of complete media and incubated for 96 hours prior to harvesting and analysis.” left out
as §1

[6] = system: Cas9 RNP, ZSCAN2 sgRNA, ZSCAN2 ON site; assay: ZSCAN2 on-target editing in K562 cells (amplicon sequencing); format: cell-based, human; details: PNA pre-treatment 2 hours before Cas9 RNP (FIG. 10A: 50 pmol PNA)
Description: as §5
as §3, with “After Cas9 RNP nucleofection cells were seeded in 2 mL of complete media and incubated for 96 hours prior to harvesting and analysis.” left out
as §1

[7] = system: Cas9 RNP, ZSCAN2 sgRNA, ZSCAN2 off-target site; assay: ZSCAN2 off-target editing in K562 cells (amplicon sequencing); format: cell-based, human; details: PNA pre-treatment 2 hours before Cas9 RNP (FIG. 10A: 50 pmol PNA)
Description: as §5
as §3, with “After Cas9 RNP nucleofection cells were seeded in 2 mL of complete media and incubated for 96 hours prior to harvesting and analysis.” left out
as §1

[8] = system: Cas9 RNP using a sgRNA targeted to the BFP gene; assay: Cas9 RNP editing of BFP reporter gene in K562-BFP cells (BFP fluorescent drop out, flow cytometry); format: cell-based, human
Description: as §5, §3
K562 cells were spun down and resuspended in fresh complete media at 300,000 cells/mL 48 hours prior to analysis. Samples for flow cytometry were fixed in complete media with 1% formaldehyde for 15 minutes before spinning down, resuspending in 300 μL PBS, and filtering through a cell strainer capped tube. Samples were analyzed for BFP and GFP fluorescence using a Cytoflex LX instrument (Beckman Coulter) using PacificBlue and FITC lasers, respectively, and quantification and gating was done using FloJo v10 software. Background fluorescent drop out was determined by measurement of mock nucleofected lines in quadruplicate and subtracted from experimental values to determine reported editing frequency.
10^6 stable BFP-expressing K562 cells were nucleofected (Lonza 4D Nucleofector) with a specified dose of PNA or ssDNA oligo (0-250 pmol). Two hours later, all conditions were nucleofected with 45 pmol of purified Cas9 RNP using a sgRNA targeted to the BFP gene. 72 hours later, cells with BFP fluorescent drop out (via Cas9 indel formation) were quantified by flow cytometry (Beckman Coulter—Cytoflex instrument).
In time-course experiments in FIG. 3D, K562 samples were nucleofected with 5 μL RNP reactions with the addition of 100 pmol of ssODN donor in 1 μL of water. RNP nucleofected samples were incubated at 37° C. in complete media before being spun down and nucleofected with 250 pmol of PNA at specified time points. After PNA delivery cells were seeded in 2 mL of complete media and incubated for 96 hours prior to harvesting and analysis.
10^6 stable BFP-expressing K562 cells were nucleofected (Lonza 4D Nucleofector) with specified dose (0-250 pmol, or 250 pmol if unspecified) of specified PNA with sequences homologous to (antispacer) or identical to (cis-spacer) the BFP gRNA spacer sequence. Two hours later, all conditions were nucleofected with 45 pmol of purified Cas9 RNP using a sgRNA targeted to the BFP gene. 72 hours later, cells with BFP fluorescent drop out (via Cas9 indel formation) were quantified by flow cytometry (Beckman Coulter—Cytoflex instrument).
10^6 stable BFP-expressing K562 cells were nucleofected (Lonza 4D Nucleofector) with 45 pmol of purified Cas9 RNP using a sgRNA targeted to the BFP gene. At each specified time point 250 pmol of BFP Anti-protospacer PNA were introduced via nucleofection. For “Cas9 only” condition there was no second PNA nucleofection and for “0 hrs” 250 pmol of PNA was co-nucleofected with Cas9 in a single reaction. After each nucleofection samples were left in fresh media for the duration of the experiment to acquire edits. 72 hours after the “24 hrs” nucleofection, cells for all conditions with BFP fluorescent drop out (via Cas9 indel formation) were quantified by flow cytometry (Beckman Coulter—Cytoflex instrument).

[9] = system: 20mer RNA oligonucleotide (spacer sequence designed to target the BFP gene); assay: UV spectroscopy thermal melting analysis of duplexes; format: binding; details: 1 μM each strand, 10 mM sodium phosphate buffer pH 7.4
Description: All samples were prepared by mixing a stoichiometric amount of each strand (1 μM) in 10 mM sodium phosphate buffer at pH 7.4 (Table 8). The samples were pre-annealed at 95° C. for 5 mins and gradually cooled to room temperature prior to the melting experiment. UV melting experiments were performed using a Shimadzu UV-3600 Plus UV-Vis-NIR spectrophotometer equipped with a thermoelectrically controlled multicell holder. UV melting spectra were recorded after every 1° C. temperature change by monitoring the absorbance at 260 nm from 20° C. to 110° C. to 20° C., with a heating/cooling ramp rate of 1.0° C./min. The heating and cooling curves were overlapped to confirm reversible denaturation. All spectra were plotted on Origin 2020 and smoothed using a 20-point adjacent averaging algorithm. The first derivative plots of the melting curves were generated to determine the melting temperature for each duplex.

[10] = system: HBB sgRNA and HBB Cas9 RNP; assay: sgRNA binding assay (EMSA) with TAMRA dye-labeled PNA, HBB target; details: heterologous spacer sequence (HBB target)
Description: (§6) 10 pmol of BFP or HBB sgRNA were incubated with or without 10 pmol of purified Cas9 (Sigma) in 20 μL of 1×NEB buffer 3.1 for 15 minutes at room temp. Then, specified doses of a TAMRA dye labeled antispacer BFP ssPNA was added to each reaction and tubes were incubated in thermocycler for 30 minutes at 37C. 5 μL of resulting reactions were run on pre-cast 5% polyacrylamide TBE gels (BIORAD). The gel was washed in 1×TBE buffer and imaged for TAMRA signal using a Gel Doc XR+ gel imager system (BIORAD). Gel was then incubated in 1×SYBR Gold in TBE for 5 minutes, washed in 1×TBE, and imaged for nucleic acid staining on Gel Doc XR+ imager. Resulting images were superimposed using ImageJ.

[11] = system: BFP sgRNA and BFP Cas9 RNP; assay: sgRNA binding assay (EMSA) with TAMRA dye-labeled PNA, BFP target
Description: as §6

## K-CTTCTGCAGC-K (all peptide nucleic acid (PNA), 5' {Lys}, 3' {Lys}) [FANCF PAM-Distal 10 mer PNA]
[1]; 50 pmol PNA (98.0% without PNA)
  on-target editing: 93.2%
[1]; 50 pmol, 1:1 PNA:sgRNA ratio
  reduction of on-target editing: 4.9%
[2]; K562, HEK293, and U2OS cell lines, PNA pre-treatment prior to Cas9 RNP nucleofection
  specificity ratio versus Cas9 only: significantly increased specificity ratios
[2]; PNA pre-annealed to sgRNA prior to Cas9 RNP formation, delivered as a single complex, K562
  specificity versus pre-treatment approaches: further improved specificity
[3]; 50 pmol
  difference in editing reduction, off-target versus on-target: 11.6 fold
[3]; 50 pmol PNA (7.13% without PNA)
  off-target editing: 3.07%
[3]; 50 pmol, 1:1 PNA:sgRNA ratio, compared to Cas9 RNP only
  reduction of off-target editing: 57.1%

## TCCGCTCTAC (all peptide nucleic acid (PNA); further chemistry not fully specified) [CCR5 PAMdist 10 mer PNA, 1 Lysine (K) on either end]
[4]
  decrease of on-target editing: 79.1%
[5]
  off-target editing in the CCR2 gene: undetectable

## CTTGCCGCAC (all peptide nucleic acid (PNA); further chemistry not fully specified) [ZSCAN PAMdist 10 mer PNA, 1 Lysine (K) on either end]
[2]; K562 cells, PNA pre-treatment
  overall increase in specificity: not observed
[6]
  decrease of on-target editing: 80.3%
[7]
  decrease of off-target editing: 66.3%

## KKK-ATGGCGTGCAGTGCTTCAGC-KKK (all peptide nucleic acid (PNA), 5' {Lys}-{Lys}-{Lys}, 3' {Lys}-{Lys}-{Lys}) [BFP Antispacer PNA]
[8]; 0-250 pmol nucleofected 2 hours prior to Cas9 RNP
  inhibitory effect on Cas9-mediated BFP gene disruption and indel formation: robust dose-dependent inhibitory effect
[8]; 250 pmol PNA at time-points up to 24 hours after Cas9 RNP/ssODN nucleofection
  block of indel formation (NHEJ) and template-mediated editing (HDR) when PNA is introduced after Cas9 RNP: rapidly and proportionally block both indel formation (NHEJ) and template-mediated editing (HDR)
[9]
  Tm of duplex with RNA spacer sequence: > 100 °C

## TAMRA-KKK-ATGGCGTGCAGTGCTTCAGC-KKK (all peptide nucleic acid (PNA); N-terminal TAMRA dye, three lysines flank each end) [TAMRA BFP Antispacer PNA, TAMRA dye conjugated at N-terminus]
[10]
  PNA-TAMRA signal co-localization with sgRNA and RNP bands: not
[11]; 10 pmol sgRNA, 10 pmol Cas9
  additional binding at 20 pmol (2×) doses compared to 10 pmol: no significant additional binding
  increase in PNA binding (TAMRA-Cas9 RNP gel bands) between 5 pmol (0.5×) and 10 pmol (1×) conditions: 2.09 fold
[11]; sequence-matched (BFP target)
  PNA-TAMRA signal co-localization with sgRNA and RNP bands: strongly co-localized

— patent US20240279687A1, “PEPTIDE NUCLEIC ACIDS FOR SPATIOTEMPORAL CONTROL OF CRISPR-CAS BINDING” (Yale University, priority 2021, published 2024)
